Experimental data reported in US12128035B2, “Activating pyruvate kinase R” (Novo Nordisk Health Care AG, priority 2021, dated 2024).

System: ATP blood levels
Test: Phase 1 SAD/MAD: blood ATP (LC-MS/MS) in healthy volunteers
Format: in vivo, human
Conditions: for Median Percentage Change in ATP Levels / Mean Percentage Change in ATP Levels: HV 400 mg QD
Protocol: In this study, SAD/MAD cohorts are randomized (3 to 1) to receive Compound 1 or placebo (P). Compound 1 was evaluated first in 4 healthy SAD cohorts and 4 healthy MAD (14-day dosing period) cohorts. Based on the safety, and PK/PD profile from HS, Compound 1 is then evaluated in 1 SCD SAD cohort and 2 SCD MAD cohorts. Specifically, based on the safety and pharmacokinetic/pharmacodynamics (PK/PD) profile in healthy volunteer studies, Compound 1 is evaluated in patients (pts) with SCD, first in a single dose (SD or SAD) cohort and then in multiple-dose (MD or MAD) cohorts (14-day and 12-week). Safety assessments include AEs, vital signs, ECGs and laboratory parameters. PK/PD blood sampling was performed on Day 1 (SAD/MAD) and Day 14 (MAD) and up to 72 h after the last dose and at the end-of-study visit. PD parameters included 2,3-DPG, ATP, and p50 in all cohorts with additional PD studies (including oxygen scan) performed only in the SCD cohorts. PD parameters included 2,3-DPG, ATP, p50, RBC deformability with controlled deoxygenation and reoxygenation (Lorrca® oxygen scan) and varying osmolality (Lorrca® osmoscan)). To maintain study blind, pt identifiers were removed when needed.
In the MAD cohorts, the subjects' blood ATP levels were measured […] by a qualified LC-MS/MS method for the quantitation of ATP in blood. […] Table 20A reports the median percentage change in blood ATP levels, relative to baseline, measured over time after the first dose on days 1 and 14 in healthy volunteers who received daily doses of Compound 1 (100 mg BID, 200 mg BID, 300 mg BID, or 400 mg QD) or placebo for 14 days. Table 20B reports the mean percentage change in ATP blood levels, relative to baseline, measured over time after the first dose on days 1 and 14 in healthy volunteers who received daily doses of Compound 1 (100 mg BID, 200 mg BID, 300 mg BID, or 400 mg QD) for 14 days.
The following procedures are employed for the analysis of ATP and 2,3-DPG in human whole blood K2EDTA using a protein precipitation extraction procedure and analysis by LC-MS/MS.
The following procedures are used for sample extraction prior to analysis via LC-MS/MS. 15.0 μL of the calibration standards, quality controls, matrix blanks, and samples are aliquoted into a 96-well plate. 50.0 μL of the internal standard spiking solution is added to all samples on the plate, with the exception of the matrix blank samples; 50.0 μL of water is added to the matrix blank samples. Subsequently, 150 μL of water is added to all samples on the plate. The plate is then covered and agitated by vortex at high speed for ten minutes, after which 750 μL of methanol is added to all samples on the plate. The plate is covered and agitated by vortex for approximately 1 minute. The plate is then centrifuged at approximately 3500 RPM at approximately 4° C. for five minutes. After centrifugation, a liquid handler is used to transfer 50 μL of each sample to a new 96-well plate, and 200 μL of acetonitrile is added to all samples on the plate. The newly prepared plate is covered and agitated by vortex for approximately 1 minute. The plate is then centrifuged at approximately 3500 RPM at approximately 4° C. for 2 minutes.

[1] = Day 1, 24 h after first daily dose
[2] = Day 14, 0 h after first daily dose
[3] = Day 14, 6 h after first daily dose
[4] = Day 14, 8 h after first daily dose
[5] = Day 14, 12 h after first daily dose
[6] = Day 14, 16 h after first daily dose
[7] = Day 14, 24 h after first daily dose
[8] = Day 14, 48 h after first daily dose
[9] = Day 14, 72 h after first daily dose
[10] = HV single 200 mg, 0 h after dose
[11] = HV single 200 mg, 6 h after dose
[12] = HV single 200 mg, 8 h after dose
[13] = HV single 200 mg, 12 h after dose
[14] = HV single 200 mg, 16 h after dose
[15] = HV single 200 mg, 24 h after dose
[16] = HV single 200 mg, 36 h after dose
[17] = HV single 200 mg, 48 h after dose
[18] = HV single 200 mg, 72 h after dose
[19] = HV single 400 mg, 0 h after dose
[20] = HV single 400 mg, 6 h after dose
[21] = HV single 400 mg, 8 h after dose
[22] = HV single 400 mg, 12 h after dose
[23] = HV single 400 mg, 16 h after dose
[24] = HV single 400 mg, 24 h after dose
[25] = HV single 400 mg, 36 h after dose
[26] = HV single 400 mg, 48 h after dose
[27] = HV single 400 mg, 72 h after dose
[28] = HV single 700 mg, 0 h after dose
[29] = HV single 700 mg, 6 h after dose
[30] = HV single 700 mg, 8 h after dose
[31] = HV single 700 mg, 12 h after dose
[32] = HV single 700 mg, 16 h after dose
[33] = HV single 700 mg, 24 h after dose
[34] = HV single 700 mg, 36 h after dose
[35] = HV single 700 mg, 48 h after dose
[36] = HV single 700 mg, 72 h after dose
[37] = HV single 1000 mg, 0 h after dose
[38] = HV single 1000 mg, 6 h after dose
[39] = HV single 1000 mg, 8 h after dose
[40] = HV single 1000 mg, 12 h after dose
[41] = HV single 1000 mg, 16 h after dose
[42] = HV single 1000 mg, 24 h after dose
[43] = HV single 1000 mg, 36 h after dose
[44] = HV single 1000 mg, 48 h after dose
[45] = HV single 1000 mg, 72 h after dose

Q: Which results are given for `O=C([C@H](CO)c1ccccc1)N1CC2=C(C1)CN(S(=O)(=O)c1cnc3c(c1)OCCO3)C2` (single isomer, unassigned) [Compound 1]?
A: Median Percentage Change in ATP Levels (Day 1, 16 h after first daily dose): −1.8%; Mean Percentage Change in ATP Levels [1]: 1.9%; Median Percentage Change in ATP Levels [1]: 0.0%; Mean Percentage Change in ATP Levels [2]: 54%; Median Percentage Change in ATP Levels [2]: 52%; Mean Percentage Change in ATP Levels [3]: 48%; Median Percentage Change in ATP Levels [3]: 52%; Mean Percentage Change in ATP Levels [4]: 51%; Median Percentage Change in ATP Levels [4]: 52%; Mean Percentage Change in ATP Levels [5]: 50%; Median Percentage Change in ATP Levels [5]: 56%; Mean Percentage Change in ATP Levels [6]: 51%; Median Percentage Change in ATP Levels [6]: 51%; Mean Percentage Change in ATP Levels [7]: 57%; Median Percentage Change in ATP Levels [7]: 52%; Mean Percentage Change in ATP Levels [8]: 60%; Median Percentage Change in ATP Levels [8]: 61%; Mean Percentage Change in ATP Levels [9]: 51%; Median Percentage Change in ATP Levels [9]: 54%; Mean Maximum Percent Change from Baseline, ATP (HV MAD, all doses and timepoints (N = 36)): 68.5%; Mean Maximum Percent Change from Baseline, ATP (HV SAD, all doses and timepoints (N = 24)): 24.4%; mean percentage change in ATP blood levels [10]: 0%; median percentage change in ATP blood levels [10]: 0%; mean percentage change in ATP blood levels [11]: 0.7%; median percentage change in ATP blood levels [11]: −4.5%; mean percentage change in ATP blood levels [12]: −2.1%; median percentage change in ATP blood levels [12]: −1.7%; mean percentage change in ATP blood levels [13]: 2.0%; median percentage change in ATP blood levels [13]: 1.7%; mean percentage change in ATP blood levels [14]: −6.9%; median percentage change in ATP blood levels [14]: −6.6%; mean percentage change in ATP blood levels [15]: 3.4%; median percentage change in ATP blood levels [15]: 4.7%; mean percentage change in ATP blood levels [16]: 6.2%; median percentage change in ATP blood levels [16]: 4.1%; mean percentage change in ATP blood levels [17]: 2.0%; median percentage change in ATP blood levels [17]: −2.4%; mean percentage change in ATP blood levels [18]: 12%; median percentage change in ATP blood levels [18]: 11%; mean percentage change in ATP blood levels [19]: 0%; median percentage change in ATP blood levels [19]: 0%; mean percentage change in ATP blood levels [20]: 2.2%; median percentage change in ATP blood levels [20]: 4.1%; mean percentage change in ATP blood levels [21]: −2.5%; median percentage change in ATP blood levels [21]: −8.8%; mean percentage change in ATP blood levels [22]: 5.6%; median percentage change in ATP blood levels [22]: 7.2%; mean percentage change in ATP blood levels [23]: 5.6%; median percentage change in ATP blood levels [23]: 4.5%; mean percentage change in ATP blood levels [24]: 15%; median percentage change in ATP blood levels [24]: 13%; mean percentage change in ATP blood levels [25]: 18%; median percentage change in ATP blood levels [25]: 16%; mean percentage change in ATP blood levels [26]: 14%; median percentage change in ATP blood levels [26]: 14%; mean percentage change in ATP blood levels [27]: 14%; median percentage change in ATP blood levels [27]: 18%; mean percentage change in ATP blood levels [28]: 0%; median percentage change in ATP blood levels [28]: 0%; mean percentage change in ATP blood levels [29]: −2.8%; median percentage change in ATP blood levels [29]: −2.6%; mean percentage change in ATP blood levels [30]: −2.9%; median percentage change in ATP blood levels [30]: −1.6%; mean percentage change in ATP blood levels [31]: −5.5%; median percentage change in ATP blood levels [31]: −5.4%; mean percentage change in ATP blood levels [32]: −1.3%; median percentage change in ATP blood levels [32]: −2.4%; mean percentage change in ATP blood levels [33]: 13%; median percentage change in ATP blood levels [33]: 12%; mean percentage change in ATP blood levels [34]: 4.5%; median percentage change in ATP blood levels [34]: 3.6%; mean percentage change in ATP blood levels [35]: 2.5%; median percentage change in ATP blood levels [35]: 0%; mean percentage change in ATP blood levels [36]: 10%; median percentage change in ATP blood levels [36]: 5.1%; mean percentage change in ATP blood levels [37]: 0%; median percentage change in ATP blood levels [37]: 0%; mean percentage change in ATP blood levels [38]: −1.7%; median percentage change in ATP blood levels [38]: 5.1%; mean percentage change in ATP blood levels [39]: 4.0%; median percentage change in ATP blood levels [39]: 3.1%; mean percentage change in ATP blood levels [40]: 2.9%; median percentage change in ATP blood levels [40]: 7.3%; mean percentage change in ATP blood levels [41]: 6.9%; median percentage change in ATP blood levels [41]: 2.4%; mean percentage change in ATP blood levels [42]: 12%; median percentage change in ATP blood levels [42]: 14%; mean percentage change in ATP blood levels [43]: 13%; median percentage change in ATP blood levels [43]: 16%; mean percentage change in ATP blood levels [44]: 14%; median percentage change in ATP blood levels [44]: 10%; mean percentage change in ATP blood levels [45]: 22%; median percentage change in ATP blood levels [45]: 20%; lag of maximum increase in blood ATP behind maximum plasma concentration (HV single 200, 400, 700 or 1000 mg): at least 24 hours
